IC50 data for 29 compounds are collected here from patent US20150218172A1, “Pyrrolo[2,3-D]Pyrimidine Tropomyosin-Related Kinase Inhibitors” (PFIZER LIMITED, priority 2012, published 2015).

The target in the assay is T1, TrkA (Homo sapiens, UniProt P04629).
T1 construct: aa 441-796; His; purchased Invitrogen PV3144
T1 sequence (P04629 441-796): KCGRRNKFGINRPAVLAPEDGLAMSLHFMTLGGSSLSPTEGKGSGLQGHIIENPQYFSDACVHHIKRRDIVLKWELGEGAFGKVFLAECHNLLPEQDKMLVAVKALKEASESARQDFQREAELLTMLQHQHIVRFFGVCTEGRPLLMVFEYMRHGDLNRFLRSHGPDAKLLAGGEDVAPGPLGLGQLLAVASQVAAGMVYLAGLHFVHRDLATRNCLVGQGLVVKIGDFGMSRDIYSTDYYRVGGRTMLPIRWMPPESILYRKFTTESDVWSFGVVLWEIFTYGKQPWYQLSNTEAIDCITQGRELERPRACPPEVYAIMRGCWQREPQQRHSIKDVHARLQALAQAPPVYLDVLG
Put plainly: Isolated TRK enzyme assay (HTRF KinEASE-TK kit), PV3144 TrkA enzyme assay. Type of assay: biochemical. To be noted: PV3144 TrkA enzyme assay, recombinant His-tagged cytoplasmic domain aa 441-796, 4 nM enzyme, 40 uM ATP; arithmetic mean where more than one reading; read-out: Trka enzyme (IC50). Summed up:
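Recombinant His-tagged cytoplasmic domain of human TrkA, preactivated with ATP for 20 min, then 20 min with compound before biotinylated TK substrate (1 uM final) at room temperature. HTRF read at 665/620 nm; % inhibition normalised to reference-compound and DMSO controls, IC50 from sigmoid fit, mean of replicates.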
A general note: Time-resolved FRET reads energy transfer from a long-lived donor to a nearby acceptor.
In the case of `CC(CO)(CO)n1cc(C(=O)c2cc(NC(=O)Cc3ccc(Cl)cc3)ccn2)c2cncnc21` [Example 102, 2-(4-chlorophenyl)-N-(2-{[7-(1,3-dihydroxy-2-methylpropan-2-yl)-7H-pyrrolo[2,3-d]pyrimidin-5-yl]carbonyl}pyridin-4-yl)acetamide], the IC50 was determined as 96.6 nM.
In the case of `CC(CO)(CO)n1cc(C(=O)c2cc(NC(=O)Cc3ccc(C(F)(F)F)cc3)ccn2)c2cncnc21` [Example 103, N-(2-{[7-(1,3-dihydroxy-2-methylpropan-2-yl)-7H-pyrrolo[2,3-d]pyrimidin-5-yl]carbonyl}pyridin-4-yl)-2-[4-(trifluoromethyl)phenyl]acetamide] it was 13.6 nM.
As to `CC(CO)(CO)n1cc(C(=O)c2cc(NC(=O)Cc3cccc(C(F)(F)F)c3)ccn2)c2cncnc21` [Example 104, N-(2-{[7-(1,3-dihydroxy-2-methylpropan-2-yl)-7H-pyrrolo[2,3-d]pyrimidin-5-yl]carbonyl}pyridin-4-yl)-2-[3-(trifluoromethyl)phenyl]acetamide], the IC50 was determined as 91.1 nM.
In the case of `CC(CO)(CO)n1cc(C(=O)c2cc(NC(=O)Cn3ccc(C(F)(F)F)n3)ccn2)c2cncnc21` [Example 105, N-(2-{[7-(1,3-dihydroxy-2-methylpropan-2-yl)-7H-pyrrolo[2,3-d]pyrimidin-5-yl]carbonyl}pyridin-4-yl)-2-[3-(trifluoromethyl)-1H-pyrazol-1-yl]acetamide] it was 72.7 nM; in that of `CC(CO)(CO)n1cc(C(=O)c2cc(NC(=O)Cc3ccc(Cl)cn3)ccn2)c2cncnc21` [Example 106, 2-(5-chloropyridin-2-yl)-N-(2-{[7-(1,3-dihydroxy-2-methylpropan-2-yl)-7H-pyrrolo[2,3-d]pyrimidin-5-yl]carbonyl}pyridin-4-yl)acetamide], 663 nM; in that of `CC(CO)(CO)n1cc(C(=O)c2cc(NC(=O)Cc3ccc(C#N)cc3)ccn2)c2cncnc21` [Example 107, 2-(4-cyanophenyl)-N-(2-{[7-(1,3-dihydroxy-2-methylpropan-2-yl)-7H-pyrrolo[2,3-d]pyrimidin-5-yl]carbonyl}pyridin-4-yl)acetamide], 467 nM.
The figure for `Cc1cc(C(F)(F)F)nn1CC(=O)Nc1ccnc(C(=O)c2cn(C(C)(CO)CO)c3ncncc23)c1` [Example 108, N-(2-{[7-(1,3-dihydroxy-2-methylpropan-2-yl)-7H-pyrrolo[2,3-d]pyrimidin-5-yl]carbonyl}pyridin-4-yl)-2-[5-methyl-3-(trifluoromethyl)-1H-pyrazol-1-yl]acetamide] is 369 nM; for `CC(C)n1cc(C(=O)c2cc(NC(=O)Cc3ccc(C#N)cn3)ccn2)c2cncnc21` [Example 109, 2-(5-Cyanopyridin-2-yl)-N-{2-[(7-isopropyl-7H-pyrrolo[2,3-d]pyrimidin-5-yl)carbonyl]pyridin-4-yl}acetamide] it is 53.6 nM.
Turning to `CC(C)(CO)n1cc(C(=O)c2ccnc(NC(=O)Cc3ccc(C#N)cc3)c2)c2cncnc21` [Example 111, 2-(4-cyanophenyl)-N-(4-{[7-(1-hydroxy-2-methylpropan-2-yl)-7H-pyrrolo[2,3-d]pyrimidin-5-yl]carbonyl}pyridin-2-yl)acetamide], the IC50 was determined as 31.8 nM.
Consider `Cc1cc(C)n(CC(=O)Nc2cc(C(=O)c3cn(C(CO)CO)c4ncncc34)ccn2)n1` [Example 112, 2-(3,5-Dimethyl-1H-pyrazol-1-yl)-N-[4-({7-[2-hydroxy-1-(hydroxymethyl)ethyl]-7H-pyrrolo[2,3-d]pyrimidin-5-yl}carbonyl)pyridin-2-yl]acetamide], for which the IC50 stood at 682 nM.
The figure for `O=C(Cc1ccc(Cl)cc1)Nc1cc(C(=O)c2cn(C(CO)CO)c3ncncc23)ccn1` [Example 113, 2-(4-Chlorophenyl)-N-[4-({7-[2-hydroxy-1-(hydroxymethyl)ethyl]-7H-pyrrolo[2,3-d]pyrimidin-5-yl}carbonyl)pyridin-2-yl]acetamide] is 58.9 nM; for `N#Cc1ccc(CC(=O)Nc2cc(C(=O)c3cn(C(CO)CO)c4ncncc34)ccn2)cc1` [Example 114, 2-(4-cyanophenyl)-N-(4-{[7-(1,3-dihydroxypropan-2-yl)-7H-pyrrolo[2,3-d]pyrimidin-5-yl]carbonyl}pyridin-2-yl)acetamide] it is 536 nM; for `O=C(Cc1ccc(Cl)cc1)Nc1cc(C(=O)c2cn(CC3(CO)COC3)c3ncncc23)ccn1` [Example 115, 2-(4-Chlorophenyl)-N-{4-[(7-{[3-(hydroxymethyl)oxetan-3-yl]methyl}-7H-pyrrolo[2,3-d]pyrimidin-5-yl)carbonyl}pyridin-2-yl]acetamide] it is 126 nM.
Take `CC(C)n1cc(C(=O)c2ccnc(NC(=O)Cn3cc(C(F)(F)F)nn3)c2)c2cncnc21` [Example 116, N-(4-{[7-(propan-2-yl)-7H-pyrrolo[2,3-d]pyrimidin-5-yl]carbonyl}pyridin-2-yl)-2-[4-(trifluoromethyl)-1H-1,2,3-triazol-1-yl]acetamide]: the IC50 stood at 59.7 nM.
In the case of `COCc1cn(CC(=O)Nc2cc(C(=O)c3cn(C(C)C)c4ncncc34)ccn2)nn1` [Example 117, 2-[4-(methoxymethyl)-1H-1,2,3-triazol-1-yl]-N-(4-{[7-(propan-2-yl)-7H-pyrrolo[2,3-d]pyrimidin-5-yl]carbonyl}pyridin-2-yl)acetamide] it was 1550 nM; in that of `CC(C)n1cc(C(=O)c2ccnc(NC(=O)Cc3ccc(F)cc3F)c2)c2cncnc21` [Example 118, 2-(2,4-difluorophenyl)-N-(4-{[7-(propan-2-yl)-7H-pyrrolo[2,3-d]pyrimidin-5-yl]carbonyl}pyridin-2-yl)acetamide], 8.82 nM; in that of `CC(C)n1cc(C(=O)c2ccnc(NC(=O)Cc3ccccc3OC(F)(F)F)c2)c2cncnc21` [Example 119, N-(4-{[7-(propan-2-yl)-7H-pyrrolo[2,3-d]pyrimidin-5-yl]carbonyl}pyridin-2-yl)-2-[2-(trifluoromethoxy)phenyl]acetamide], 71.1 nM.
`CC(C)n1cc(C(=O)c2ccnc(NC(=O)Cc3ccc(OC(F)(F)F)cc3)c2)c2cncnc21` [Example 120, N-(4-{[7-(propan-2-yl)-7H-pyrrolo[2,3-d]pyrimidin-5-yl]carbonyl}pyridin-2-yl)-2-[4-(trifluoromethoxy)phenyl]acetamide]: the IC50 was 18.6 nM.
In the case of `Cc1cn(CC(=O)Nc2cc(C(=O)c3cn(C(C)C)c4ncncc34)ccn2)nn1` [Example 121, 2-(4-methyl-1H-1,2,3-triazol-1-yl)-N-(4-{[7-(propan-2-yl)-7H-pyrrolo[2,3-d]pyrimidin-5-yl]carbonyl}pyridin-2-yl)acetamide] it was 328 nM; in that of `CC(C)n1cc(C(=O)c2ccnc(NC(=O)Cc3ccc(C(F)(F)F)cc3)c2)c2cncnc21` [Example 122, N-(4-{[7-(propan-2-yl)-7H-pyrrolo[2,3-d]pyrimidin-5-yl]carbonyl}pyridin-2-yl)-2-[4-(trifluoromethyl)phenyl]acetamide], 4.24 nM.
For the compound `CC(C)n1cc(C(=O)c2ccnc(NC(=O)Cc3cccc(S(C)(=O)=O)c3)c2)c2cncnc21` [Example 123, 2-[3-(methylsulfonyl)phenyl]-N-(4-{[7-(propan-2-yl)-7H-pyrrolo[2,3-d]pyrimidin-5-yl]carbonyl}pyridin-2-yl)acetamide], the IC50 turned out to be 42.1 nM.
As to `CC(C)n1cc(C(=O)c2ccnc(NC(=O)Cc3ccc(C(F)(F)F)c(F)c3)c2)c2cncnc21` [Example 124, 2-[3-fluoro-4-(trifluoromethyl)phenyl]-N-(4-{[7-(propan-2-yl)-7H-pyrrolo[2,3-d]pyrimidin-5-yl]carbonyl}pyridin-2-yl)acetamide], the IC50 was determined as 15.1 nM.
Regarding `Cc1cc(C(F)(F)F)nn1CC(=O)Nc1cc(C(=O)c2cn(C(C)C)c3nc(O)ncc23)ccn1` [Example 125, N-(4-{[2-hydroxy-7-(propan-2-yl)-7H-pyrrolo[2,3-d]pyrimidin-5-yl]carbonyl}pyridin-2-yl)-2-[5-methyl-3-(trifluoromethyl)-1H-pyrazol-1-yl]acetamide], the IC50 came to 250 nM.
For the compound `Cc1cc(C)n(CC(=O)Nc2cc(C(=O)c3cn(CC(C)(C)O)c4ncncc34)ccn2)n1` [Example 127, 2-(3,5-dimethyl-1H-pyrazol-1-yl)-N-(4-{[7-(2-hydroxy-2-methylpropyl)-7H-pyrrolo[2,3-d]pyrimidin-5-yl]carbonyl}pyridin-2-yl)acetamide], the IC50 worked out at 1110 nM.
As to `Cc1ccn(CC(=O)Nc2cc(C(=O)c3cn(CCO)c4ncncc34)ccn2)n1` [Example 128, N-(4-{[7-(2-hydroxyethyl)-7H-pyrrolo[2,3-d]pyrimidin-5-yl]carbonyl}pyridin-2-yl)-2-(3-methyl-1H-pyrazol-1-yl)acetamide], the 50% inhibitory concentration (IC50) was found to be 1230 nM.
In the case of `CC(C)c1cn(CC(=O)Nc2cc(C(=O)c3cn(CCO)c4ncncc34)ccn2)nn1` [Example 129, N-(4-{[7-(2-hydroxyethyl)-7H-pyrrolo[2,3-d]pyrimidin-5-yl]carbonyl}pyridin-2-yl)-2-[4-(propan-2-yl)-1H-1,2,3-triazol-1-yl]acetamide] it was 201 nM.
With `Cc1ccnn1CC(=O)Nc1cc(C(=O)c2cn(CCO)c3ncncc23)ccn1` [Example 130, N-(4-{[7-(2-hydroxyethyl)-7H-pyrrolo[2,3-d]pyrimidin-5-yl]carbonyl}pyridin-2-yl)-2-(5-methyl-1H-pyrazol-1-yl)acetamide], the half-maximal inhibitory concentration (IC50) worked out at 1750 nM.
In the case of `CS(=O)(=O)c1cccc(CC(=O)Nc2cc(C(=O)c3cn(CCO)c4ncncc34)ccn2)c1` [Example 131, N-(4-{[7-(2-hydroxyethyl)-7H-pyrrolo[2,3-d]pyrimidin-5-yl]carbonyl}pyridin-2-yl)-2-[3-(methylsulfonyl)phenyl]acetamide] it was 1110 nM.
The figure for `Cc1cc(C(F)(F)F)nn1CC(=O)Nc1cc(C(=O)c2cn(CCO)c3ncncc23)ccn1` [Example 132, N-(4-{[7-(2-hydroxyethyl)-7H-pyrrolo[2,3-d]pyrimidin-5-yl]carbonyl}pyridin-2-yl)-2-[5-methyl-3-(trifluoromethyl)-1H-pyrazol-1-yl]acetamide] is 48.2 nM.

One may read the IC50 as the concentration that gives 50% inhibition.
